pIC50: −log10 of the molar value. Several values for one entry are separate records, joined by “and”; a condition that tells them apart may be missing. Equal entries are not always repeated. Where two headings read alike, the source gives them in different places.
Tests used:
[1] = biological target: T1, UL54 plus GST-UL44ΔC290 (Human cytomegalovirus, UniProt P16790); experiment: long-chain DNA synthesis by UL54 in the presence of UL44; format: biochemical, HCMV; conditions: for inhibition of long-chain DNA synthesis by UL54 and UL44: dose-response
T1 construct: GST-UL44ΔC290 fusion protein, which contains the N-terminal 290 residues of HCMV UL44; made in house; host or cells: UL54: in vitro transcription/translation; GST-UL44ΔC290: E. coli BL21 (DE3)pLysS
Protocol: To analyze the ability of the compounds to interfere with functional UL54-UL44 interactions, we tested their ability to inhibit long-chain DNA synthesis by UL54 in the presence of UL44 employing a poly(dA)-oligo(dT)12-18 template-primer.
DNA polymerase assays. The effects of compounds were tested in an assay that measures long-chain DNA synthesis as described in Loregian et al. (Loregian et al., 2004a), with 5 μl of in vitro-transcribed and -translated UL54 plus 800 fmol of GST-UL44ΔC290 in the absence or in the presence of various amounts of each compound.
The effect of the compounds was also tested in an assay that measures long chain (Lc) DNA synthesis as described in Loregian et al., J. Virol. […]

[2] = tested on: HCMV AD169; experiment: virus yield reduction assay; format: cell-based, human cytomegalovirus
Protocol: Next, we tested the effects of selected compounds and of GCV as a control in viral yield assays, which measure the titer of virus progeny produced following infection at relatively high multiplicity. In these assays, the viral titer was measured at two different times points post-infection (p.i.): at 96 hrs, when the release of virus progeny is increasing, and at 120 hrs, when the titer of virus progeny after a single cycle of replication reaches peak levels (Stinski, 1983).
(§1) For yield reduction assays, HFF cells were plated at 2×10^4 cells per well in 96-well cluster dishes, incubated overnight, and infected with HCMV AD169 at a multiplicity of infection (MOI) of 1. After virus adsorption for 2 hr at 37° C., cells were washed and incubated with 200 μl of fresh media containing test compounds at increasing drug concentration. Plates were incubated for 3 or 5 days at 37° C. and subjected to one cycle of freezing and thawing, and titers were determined by transferring 100-μl aliquots from each of the wells to a fresh 96-well monolayer culture of HFF cells followed by 1:5 serial dilution across the plate. Cultures were incubated for 7 days, cells were stained, and the numbers of plaques were determined as described above.
as §1, with “The effect of the compounds was assessed in an assay of virus yield. In this assay, cells are infected at a relatively high multiplicity of infection (about one per cell) and then drug is added. The virus produced at the different times post infection is measured. 120 hrs. is about the peak titer. This assay was conducted as follows.” for “For yield reduction assays,”, “20,000” for “2×10^4”, “an MOI” for “a multiplicity of infection (MOI)”, “0.1, 0.3, 1, 3, 10, 30 μM” for “increasing”

[3] = biological target: T2, full-length UL54 / UL44 interaction (Human cytomegalovirus, UniProt P16790); experiment: UL54-UL44 interaction ELISA; format: binding, HCMV; conditions: concentrations up to 200 μM
T2 construct: made in house; host or cells: baculovirus expression; proteins provided by H. S. Marsden (Institute of Virology, Glasgow)
Protocol: In this assay, binding between purified baculovirus-expressed UL54 and UL44, which was tagged with an EEF epitope, was detected using an antibody that recognizes the epitope tag (Loregian et al., 2003).
UL54-UL44 interaction ELISA. This assay was conducted as described in (Loregian et al., 2003), testing various concentrations of each compound. After final washes, the chromogenic substrate 2,2′-azino-bis(3-ethylbenzothiazoline-6-sulphonic acid (ABTS, Pierce) in citrate phosphate buffer (pH 4.0) containing 0.01% hydrogen peroxide was added and absorbance was read at 405 nm on a Victor plate reader (Wallac).
Another assay that was used to test the effect of the compounds on the interaction of UL44 and UL54 is an ELISA interaction assay, which measures the interaction of the two full length proteins with each other. This assay was conducted as described in Loregian et al., J. Virol. 2003, 77:8336-8344, testing different concentrations (0, 3.12, 6.25, 12.5, 25, 50, 100, 200 μM) of each compound.

[4] = tested on: HCMV strain AD169; experiment: plaque reduction assay; format: cell-based, human cytomegalovirus; conditions: HFF cells; 0-30 μM
Protocol: Antiviral assays. Plaque reduction assays were performed essentially as follows: HFF (human foreskin fibroblast) cells were seeded at 2×10^5 cells per well in 24-well cluster dishes. The next day, cells were infected with HCMV (strain AD169) at 80 PFU per well in DMEM plus 5% fetal bovine serum (FBS) at 37° C. Two hours post-infection, the inocula were removed, cells were washed, and media containing various drug dilutions, 5% FBS, and 0.6% methylcellulose were added. All drug dilutions were tested at least in duplicate. After incubation at 37° C. for 10-11 days, cell monolayers were stained with crystal violet and plaques were counted under light microscopy.
The effect of the compounds was assessed in a plaque reduction assay that measures the number of plaques formed in the presence of varying concentrations of a drug, as follows. HFF were seeded at 2×10^5 cells per well in 24-well cluster dishes. The next day, they were infected with HCMV AD169 at 80 PFU per well in DMEM plus 5% FBS at 37° C. Two hr post-infection, the inocula were then removed, cells were washed, and media containing selected drug dilutions (0, 0.1, 0.3, 1, 3, 10, 30 μM), and 5% FBS and 0.6% methylcellulose were added. All drug dilutions were tested at least in duplicate. After incubation at 37° C. for 10-11 days, cell monolayers were stained with crystal violet and plaques were enumerated under light microscopy.

[5] = tested on: HFF cells; experiment: XTT cytotoxicity assay; format: cell-based, human
Protocol: Cytotoxicity assays. HFF cells were seeded at 2×10^4, 4×10^3, or 10^3 cells per well into 96-well plates and, after a 3-hr incubation to allow cell attachment, were treated for 24, 72, or 120 hr, respectively, with various concentrations of each compound in duplicate. Cell viability was then determined with an XTT assay (Roche Molecular Biochemicals) according to the manufacturer's protocol by using a Victor plate reader (Wallac).
The cytotoxicity of the compounds was measured in an XTT assay. XTT is a compound that is converted to a product that can be measured […], but only by viable cells. This assay is as follows. HFF (human foreskin fibroblasts) cells were seeded at different concentrations into 96-well plates and treated with various concentrations (from 0 to 200 μM) of each compound in duplicate for 24, 72 or 120 hr. Cell viability was then determined with an XTT assay (Roche Molecular Biochemicals) according to the manufacturer's protocol by using a Victor plate reader (Wallac).

[6] = biological target: T3, GST-UL44ΔC290 / UL54-derived peptide interaction (Human cytomegalovirus, UniProt P16790); experiment: biochemical; format: binding, HCMV; conditions: 2.5 μM GST-UL44ΔC290 and 3 nM labeled peptide
T3 construct: GST-UL44ΔC290 fusion protein, which contains the N-terminal 290 residues of HCMV UL44; made in house; host or cells: E. coli BL21 (DE3)pLysS
Source text: To identify small molecule inhibitors of the UL54-UL44 interaction, we developed an assay based on fluorescence polarization (FP) (Dandliker et al., 1981). In this assay, a peptide corresponding to the C-terminal 22 residues of UL54 (here named peptide 1, as in Loregian et al. (Loregian et al., 2003)), which was labeled with the fluorophore Oregon Green, is mixed with UL44ΔC290, a truncated protein which retains all known biochemical activities of full-length UL44 (Loregian et al., 2004b), fused to glutathione S-transferase (GST-UL44ΔC290).
We next investigated whether this assay could detect a known inhibitor of the UL54-UL44 interaction. To this end, a binding reaction of 2.5 μM GST-UL44ΔC290 and 3 nM labeled peptide was titrated with increasing concentrations of unlabeled peptide 1 (FIG. 4B).
FP assays. Unless otherwise indicated, […] of Oregon Green-labeled peptide 1 was added to 2.5 μM GST-UL44ΔC290 in 50 mM Tris-HCl (pH 7.5), 2 mM dithiothreitol, 0.5 mM EDTA, 150 mM NaCl, 4% glycerol and 100 μg/ml bovine serum albumin and kept on ice until the mix was distributed into black 384-well plates (Nunc) in a total volume of 40 μl per well. For high throughput screening, small molecules (5 mg/ml in DMSO) of the Maybridge, Bionet, Peakdale, ChemDiv, and Chembridge Microformat libraries were obtained from the ICCB, and 100 nl of each compound were transferred to individual wells using 384-pin arrays. All compounds were tested in duplicate. As controls, reaction mixtures containing either labeled peptide 1 only, or GST-UL44ΔC290 plus labeled peptide 1 (no compound), or GST-UL44ΔC290 plus labeled peptide 1 in the presence of 3 μM or 20 μM of unlabeled peptide 1, were included on each screening plate. After 15-min incubation at room temperature, FP values were determined by using an Analyst plate reader (LJL Biosystems) at the ICCB.
A fluorescence polarization (FP) assay was used to identify compounds that inhibit HCMV polymerase subunit interactions. Compounds from the Harvard Institute of Chemistry and Cell Biology (ICCB, Harvard Medical School) were screened as follows. 3 nM of a synthetic peptide corresponding to the C-terminal 22 residues of HMCV UL54 (termed peptide 1 in Loregian et al., J. Virol. 2003, 77:8336-8344) and N-terminally labeled with Oregon Green was added to 2.5 μM GST-UL44ΔC290 in 50 mM Tris-HCl (pH 7.5), 2 mM DTT, 0.5 mM EDTA, 150 mM NaCl, 4% Glycerol and 100 μg/ml bovine serum albumin and kept on ice until the mix was distributed into black 384-well plates (Nunc) in a total volume of 40 μl per well. […] After 5-min incubation at room temperature, the FP values were determined by using an Analyst plate reader (LJL Biosystems) at the ICCB. […]

[7] = IC50 for inhibition of FP (UL44-UL54 peptide interaction)
[8] = read-out: IC50 for inhibition of FP (UL44-UL54 peptide interaction)

T3 sequence (P16790 1-290, stated change not applied): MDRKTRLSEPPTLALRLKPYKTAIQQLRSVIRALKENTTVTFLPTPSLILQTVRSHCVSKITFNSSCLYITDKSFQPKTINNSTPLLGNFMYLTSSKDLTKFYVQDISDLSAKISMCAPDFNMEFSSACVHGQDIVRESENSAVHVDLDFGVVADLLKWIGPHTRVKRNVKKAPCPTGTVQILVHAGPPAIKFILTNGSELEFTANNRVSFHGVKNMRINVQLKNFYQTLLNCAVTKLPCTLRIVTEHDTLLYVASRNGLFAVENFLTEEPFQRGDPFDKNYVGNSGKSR
T1 sequence (P16790 1-290, stated change not applied): as above
T2 sequence (P16790 whole entry): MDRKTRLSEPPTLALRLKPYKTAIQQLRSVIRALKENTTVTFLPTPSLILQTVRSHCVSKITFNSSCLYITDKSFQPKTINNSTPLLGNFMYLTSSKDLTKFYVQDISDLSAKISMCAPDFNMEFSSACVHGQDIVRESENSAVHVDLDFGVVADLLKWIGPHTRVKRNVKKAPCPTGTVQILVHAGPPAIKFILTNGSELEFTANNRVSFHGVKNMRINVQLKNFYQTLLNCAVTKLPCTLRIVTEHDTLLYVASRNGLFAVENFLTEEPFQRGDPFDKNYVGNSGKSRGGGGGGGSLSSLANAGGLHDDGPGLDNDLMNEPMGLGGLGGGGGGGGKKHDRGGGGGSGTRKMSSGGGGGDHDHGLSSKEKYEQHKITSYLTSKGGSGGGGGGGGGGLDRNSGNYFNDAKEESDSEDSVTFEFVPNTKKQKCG

CCOc1cc(C2C(C#N)=C(N)Oc3n[nH]c(-c4ccccc4)c32)cc([N+](=O)[O-])c1O (stereo not drawn) [AL1]
inhibition of long-chain DNA synthesis by UL54 and UL44 [1]: little or no inhibition
effect on virus yield / HCMV replication [2]: little or no effect

CCOc1cc(C2C(C#N)=C(N)Oc3n[nH]c(-c4ccc(Cl)cc4)c32)cc([N+](=O)[O-])c1O (stereo not drawn) [AL3]
inhibition of long-chain DNA synthesis by UL54 and UL44 [1]: little or no inhibition
inhibition of the UL54-UL44 physical interaction [3]: did not significantly inhibit
effect on virus yield / HCMV replication [2]: little or no effect

CCOc1cc(C2C(C#N)=C(N)Oc3n[nH]c(-c4cc(OC)c(OC)c(OC)c4)c32)cc([N+](=O)[O-])c1O (stereo not drawn) [AL4]
effect on virus yield / HCMV replication ([2]; HFF cells): little or no effect

Cn1c(=O)cc2c3c(c(N4CCCCC4)ccc31)C(=O)c1ccccc1-2 [AL5]
inhibition of long-chain DNA synthesis by UL54 and UL44 at one concentration ([1]; 40 μM): severely decreased formation of long DNA products
inhibition of long-chain DNA synthesis by UL54 and UL44 [1]: relatively low IC50s
IC50s in plaque reduction assay [4]: relatively low IC50s
cytotoxic concentration relative to antiviral concentration [5]: 7-500 fold
cytotoxicity [5]: relatively high CC50's
inhibition of the UL54-UL44 physical interaction [3]: potent
effect on virus yield / HCMV replication [2]: relatively low IC50s

COc1ccccc1C=C1N=C(c2ccc(OC)c(OC)c2)N(c2cccc(F)c2)C1=O [AL6]
cytotoxicity [5]: significant cytotoxicity

Cc1ccc(-c2nc3nc(-c4ccc(Br)cc4)cn3nc2-c2ccc(C)cc2)cc1 [AL8]
inhibition of long-chain DNA synthesis by UL54 and UL44 [1]: inactive
pIC50 [6, 7]: > 4.30 and 4.52 to 5.30

CCN1C=CC(=CC=Cc2ccc3ccccc3[n+]2CC)c2ccccc21 [AL10]
cytotoxicity [5]: significant cytotoxicity
pIC50 [6, 7]: > 4.30 and 4.52 to 5.30

CCn1c2ccccc2c2cc3cc4ccccc4cc3cc21 [AL11]
cytotoxicity [5]: significant cytotoxicity

CN(C)c1ccc2nc3c(=O)[nH]c(=O)[nH]c3nc2c1 [AL13]
cytotoxicity [5]: significant cytotoxicity
pIC50 [6, 8]: 4.30

CNC(=S)NN=Cc1cc(Br)ccc1O [AL14]
cytotoxicity [5]: significant cytotoxicity

O=C1CC(=O)c2c1cccc2[N+](=O)[O-] [AL15]
pIC50 [6, 8]: 4.22

O=C1c2cccc3c([N+](=O)[O-])ccc(c23)C(=O)N1Cc1cccnc1 [AL19]
cytotoxicity [5]: significant cytotoxicity

Reference: patent US7893108B2, “Antiviral methods and compositions” (priority 2004, dated 2011)
